Reference: patent publication US6914045B2, “Glycopeptide antibiotics” (Wyeth Holdings Corporation, priority 2001, dated 2005)
≈ marks a conversion by molar mass, not a printed value.

Experiments:
Test in all cases: in vitro antibacterial evaluation, MIC by broth dilution
Type in all cases: cell-based
Escherichia coli = conditions: 18 hours at 35° C.
How it was run: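 MIC is the lowest antibiotic concentration (tested 64-0.06 μg/mL) preventing growth of a 5×10^5 CFU/mL inoculum. Determined by broth dilution in Mueller-Hinton II medium following NCCLS standard M7-A2.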

Streptococcus sp. = conditions: broth dilution, 18 hours at 35° C.
Experimental: (§1) Methods for in vitro Antibacterial Evaluation (Table 1)
(§2) The minimum inhibitory concentration (MIC), the lowest concentration of the antibiotic which inhibits growth of the test organism, is determined by the broth dilution method using Muller-Hinton II […] (Baltimore Biological Laboratories) following the recommendations of the National Committee for Clinical Laboratory Standards [Methods for dilution antimicrobial susceptibility tests for bacteria that grow aerobically, approved standard M7-A2, National Committee for Clinical Laboratory Standards, Villanova, Pa.].
(§3) An inoculum level of 5×10^5 CFU/mL, and a range of antibiotic concentrations (64-0.06 μg/mL) is used. […] The test organisms include a spectrum of Gram-positive bacteria comprised of Staphylococcus sp., Streptococcus sp. and Enterococcus sp. These organisms include recent clinical isolates that are resistant to methicillin, penicillin and/or vancomycin.

Enterococcus sp. = conditions: broth dilution, 18 hours at 35° C.
Experimental: as §1, §2, §3

Staphylococcus sp. = test system: Staphylococcus sp.
Experimental: as §1, §2, §3

[1] = broth dilution, 18 hours at 35° C.
[2] = strain ATCC 29213; broth dilution, 18 hours at 35° C.
[3] = strain GC 1131; broth dilution, 18 hours at 35° C.
[4] = strain GC 4541; broth dilution, 18 hours at 35° C.
[5] = strain GC 4542; broth dilution, 18 hours at 35° C.
[6] = strain GC 4544; broth dilution, 18 hours at 35° C.
[7] = strain GC 4545; broth dilution, 18 hours at 35° C.

CCCC(CCC)C(=O)OCC1OC(Oc2ccc(CC3NC(=O)C(C(C)c4ccccc4)NC(=O)CNC(=O)C(CO)NC(=O)C(C(O)C4CNC(=N)N4C4OC(CO)C(O)C(O)C4O)NC(=O)C(C(O)C4CNC(=N)N4)NC3=O)cc2)C(O)C(O)C1OC1OC(CO)C(O)C(O)C1O (stereo not drawn) [Example 99b, Cyclo[glycyl-β-methylphenylalanyl-O-[4-O-hexopyranosyl-6-O-(2-propylpentanoyl)hexopyranosyl]tyrosyl-3-(2-iminoimidazolidin-4-yl)seryl-3-(3-hexopyranosyl-2-iminoimidazolidin-4-yl)serylseryl]]
MIC Escherichia coli (ATCC 25922) (Escherichia coli): >64 µg/mL
MIC Streptococcus agalactiae (GC 4564) (Streptococcus sp.; Streptococcus agalactiae (GC 4564)): 2 µg/mL (≈ 1.41 µM)
MIC Streptococcus pneumoniae (GC 4565) (Streptococcus sp.; Streptococcus pneumoniae (GC 4565)): <0.5 µg/mL
MIC Streptococcus pyogenes (ID-3187) (Streptococcus sp.; Streptococcus pyogenes (ID-3187)): 1 µg/mL (≈ 0.703 µM)
MIC Streptococcus agalactiae (GC 4564) (Streptococcus sp.): 2 µg/mL (≈ 1.41 µM)
MIC Streptococcus pneumoniae (GC 4565) (Streptococcus sp.): <0.5 µg/mL
MIC Streptococcus pyogenes (ID-3187) (Streptococcus sp.): 1 µg/mL (≈ 0.703 µM)
MIC Enterococcus avium (GC 4558) (Enterococcus sp.; Enterococcus avium (GC 4558)): 16 µg/mL (≈ 11.3 µM)
MIC Enterococcus faecalis (ATCC 29212) (Enterococcus sp.; Enterococcus faecalis (ATCC 29212)): 16 µg/mL (≈ 11.3 µM)
MIC Enterococcus faecalis (GC 2242) (Enterococcus sp.; Enterococcus faecalis (GC 2242)): 16 µg/mL (≈ 11.3 µM)
MIC Enterococcus faecalis (GC 4552) (Enterococcus sp.; Enterococcus faecalis (GC 4552)): 32 µg/mL (≈ 22.5 µM)
MIC Enterococcus faecalis (GC 4553) (Enterococcus sp.; Enterococcus faecalis (GC 4553)): 16 µg/mL (≈ 11.3 µM)
MIC Enterococcus faecalis (GC 4554) (Enterococcus sp.; Enterococcus faecalis (GC 4554)): 32 µg/mL (≈ 22.5 µM)
MIC Enterococcus faecium (GC 2243) (Enterococcus sp.; Enterococcus faecium (GC 2243)): 16 µg/mL (≈ 11.3 µM)
MIC Enterococcus faecium (GC 4556) (Enterococcus sp.; Enterococcus faecium (GC 4556)): 16 µg/mL (≈ 11.3 µM)
MIC Enterococcus faecium (GC 4557) (Enterococcus sp.; Enterococcus faecium (GC 4557)): 4 µg/mL (≈ 2.81 µM)
MIC Enterococcus avium (GC 4558) (Enterococcus sp.): 16 µg/mL (≈ 11.3 µM)
MIC Enterococcus faecalis (ATCC 29212) (Enterococcus sp.): 16 µg/mL (≈ 11.3 µM)
MIC Enterococcus faecalis (GC 2242) (Enterococcus sp.): 16 µg/mL (≈ 11.3 µM)
MIC Enterococcus faecalis (GC 4552) (Enterococcus sp.): 32 µg/mL (≈ 22.5 µM)
MIC Enterococcus faecalis (GC 4553) (Enterococcus sp.): 16 µg/mL (≈ 11.3 µM)
MIC Enterococcus faecalis (GC 4554) (Enterococcus sp.): 32 µg/mL (≈ 22.5 µM)
MIC Enterococcus faecium (GC 2243) (Enterococcus sp.): 16 µg/mL (≈ 11.3 µM)
MIC Enterococcus faecium (GC 4556) (Enterococcus sp.): 16 µg/mL (≈ 11.3 µM)
MIC Enterococcus faecium (GC 4557) (Enterococcus sp.): 4 µg/mL (≈ 2.81 µM)
MIC Coagulase Negative Staphylococcus (GC 4547) (Staphylococcus sp.; [1]): 4 µg/mL (≈ 2.81 µM)
MIC Coagulase Negative Staphylococcus (GC 4548) (Staphylococcus sp.; [1]): 4 µg/mL (≈ 2.81 µM)
MIC Coagulase Negative Staphylococcus (GC 4549) (Staphylococcus sp.; [1]): 2 µg/mL (≈ 1.41 µM)
MIC Coagulase Negative Staphylococcus (GC 4551) (Staphylococcus sp.; [1]): 8 µg/mL (≈ 5.63 µM)
MIC Coagulase Negative Staphylococcus (ID-3941) (Staphylococcus sp.; [1]): 2 µg/mL (≈ 1.41 µM)
MIC Staphylococcus aureus-SMITH (GC 4543) (Staphylococcus sp.; [1]): 4 µg/mL (≈ 2.81 µM)
MIC Staphylococcus haemolyticus (GC 4546) (Staphylococcus sp.; [1]): 4 µg/mL (≈ 2.81 µM)
MIC Staphylococcus haemolyticus (GC 4546) (Staphylococcus sp.; broth dilution, 18 hours at 35° C.; strain GC 4546): 4 µg/mL (≈ 2.81 µM)
MIC Coagulase Negative Staphylococcus (GC 4547) (Staphylococcus sp.; broth dilution, 18 hours at 35° C.; strain GC 4547): 4 µg/mL (≈ 2.81 µM)
MIC Coagulase Negative Staphylococcus (GC 4548) (Staphylococcus sp.; broth dilution, 18 hours at 35° C.; strain GC 4548): 4 µg/mL (≈ 2.81 µM)
MIC Coagulase Negative Staphylococcus (GC 4549) (Staphylococcus sp.; broth dilution, 18 hours at 35° C.; strain GC 4549): 2 µg/mL (≈ 1.41 µM)
MIC Coagulase Negative Staphylococcus (GC 4551) (Staphylococcus sp.; broth dilution, 18 hours at 35° C.; strain GC 4551): 8 µg/mL (≈ 5.63 µM)
MIC Coagulase Negative Staphylococcus (ID-3941) (Staphylococcus sp.; broth dilution, 18 hours at 35° C.; strain ID-3941): 2 µg/mL (≈ 1.41 µM)
MIC Staphylococcus aureus-SMITH (GC 4543) (Staphylococcus sp.; broth dilution, 18 hours at 35° C.; strain SMITH GC 4543): 4 µg/mL (≈ 2.81 µM)
MIC Staphylococcus aureus (ATCC 29213) (Staphylococcus sp.; [2]): 4 µg/mL (≈ 2.81 µM)
MIC Staphylococcus aureus (GC 1131) (Staphylococcus sp.; [3]): 4 µg/mL (≈ 2.81 µM)
MIC Staphylococcus aureus (GC 4541) (Staphylococcus sp.; [4]): 4 µg/mL (≈ 2.81 µM)
MIC Staphylococcus aureus (GC 4542) (Staphylococcus sp.; [5]): 4 µg/mL (≈ 2.81 µM)
MIC Staphylococcus aureus (GC 4544) (Staphylococcus sp.; [6]): 4 µg/mL (≈ 2.81 µM)
MIC Staphylococcus aureus (GC 4545) (Staphylococcus sp.; [7]): 4 µg/mL (≈ 2.81 µM)

Cc1ccc(OC(=O)Nc2cc(CC3NC(=O)C(C(C)c4ccccc4)NC(=O)CNC(=O)C(CO)NC(=O)C(C(O)C4CNC(=N)N4C4OC(CO)C(O)C(O)C4O)NC(=O)C(C(O)C4CNC(=N)N4)NC3=O)ccc2O)cc1 (stereo not drawn) [Example 19, Cyclo[glycyl-β-methylphenylalanyl-3-[[(4-methylphenoxy)carbonyl]amino]tyrosyl-3-(2-iminoimidazolidin-4-yl)seryl-3-(3-hexopyranosyl-2-iminoimidazolidin-4-yl)serylseryl]]
MIC Escherichia coli (ATCC 25922) (Escherichia coli; strain ATCC 25922, broth dilution): 128 µg/mL (≈ 114 µM)
MIC Escherichia coli (GC 4559) (Escherichia coli; strain GC 4559, broth dilution): 128 µg/mL (≈ 114 µM)
MIC Escherichia coli (GC 4560) (Escherichia coli; strain GC 4560, broth dilution): 128 µg/mL (≈ 114 µM)
MIC Streptococcus pneumoniae (ATCC 6301) (Streptococcus sp.; strain ATCC 6301): 128 µg/mL (≈ 114 µM)
MIC Streptococcus pneumoniae (GC 1894) (Streptococcus sp.; strain GC 1894): 64 µg/mL (≈ 57.1 µM)
MIC Streptococcus pyogenes (GC 4563) (Streptococcus sp.; strain GC 4563): >128 µg/mL
MIC Streptococcus agalactiae (GC 4564) (Streptococcus sp.; strain GC 4564): >128 µg/mL
MIC Streptococcus pneumoniae (GC 4565) (Streptococcus sp.; strain GC 4565): 128 µg/mL (≈ 114 µM)
MIC Enterococcus faecalis (ATCC 29212) (Enterococcus sp.; strain ATCC 29212): >128 µg/mL
MIC Enterococcus faecalis (GC 2242) (Enterococcus sp.; strain GC 2242): >128 µg/mL
MIC Enterococcus faecium (GC 2243) (Enterococcus sp.; strain GC 2243): >128 µg/mL
MIC Enterococcus faecalis (GC 2691) (Enterococcus sp.; strain GC 2691): >128 µg/mL
MIC Enterococcus faecalis (GC 3059) (Enterococcus sp.; strain GC 3059): >128 µg/mL
MIC Enterococcus faecalis (GC 4552) (Enterococcus sp.; strain GC 4552): >128 µg/mL
MIC Enterococcus faecalis (GC 4553) (Enterococcus sp.; strain GC 4553): 128 µg/mL (≈ 114 µM)
MIC Enterococcus faecalis (GC 4554) (Enterococcus sp.; strain GC 4554): >128 µg/mL
MIC Enterococcus faecium (GC 4556) (Enterococcus sp.; strain GC 4556): >128 µg/mL
MIC Enterococcus faecium (GC 4557) (Enterococcus sp.; strain GC 4557): 128 µg/mL (≈ 114 µM)
MIC Enterococcus avium (GC 4558) (Enterococcus sp.; strain GC 4558): 128 µg/mL (≈ 114 µM)
MIC Enterococcus faecalis (GC 6189) (Enterococcus sp.; strain GC 6189): >128 µg/mL
MIC Staphylococcus aureus (ATCC 29213) (Staphylococcus sp.; [2]): >128 µg/mL
MIC Staphylococcus aureus (GC 1131) (Staphylococcus sp.; [3]): >128 µg/mL
MIC Staphylococcus aureus (GC 3051) (Staphylococcus sp.; strain GC 3051; broth dilution, 18 hours at 35° C.): >128 µg/mL
MIC Staphylococcus aureus (GC 3053) (Staphylococcus sp.; strain GC 3053; broth dilution, 18 hours at 35° C.): >128 µg/mL
MIC Staphylococcus aureus (GC 4541) (Staphylococcus sp.; [4]): >128 µg/mL
MIC Staphylococcus aureus (GC 4542) (Staphylococcus sp.; [5]): >128 µg/mL
MIC Staphylococcus aureus-SMITH (GC 4543) (Staphylococcus sp.; strain GC 4543; broth dilution, 18 hours at 35° C.): >128 µg/mL
MIC Staphylococcus aureus (GC 4544) (Staphylococcus sp.; [6]): >128 µg/mL
MIC Staphylococcus aureus (GC 4545) (Staphylococcus sp.; [7]): >128 µg/mL
MIC Staphylococcus haemolyticus (GC 4546) (Staphylococcus sp.; strain GC 4546; broth dilution, 18 hours at 35° C.): >128 µg/mL
MIC Coagulase Negative Staphylococcus (GC 4547) (Staphylococcus sp.; strain GC 4547; broth dilution, 18 hours at 35° C.): >128 µg/mL
MIC Coagulase Negative Staphylococcus (GC 4548) (Staphylococcus sp.; strain GC 4548; broth dilution, 18 hours at 35° C.): >128 µg/mL
MIC Coagulase Negative Staphylococcus (GC 4549) (Staphylococcus sp.; strain GC 4549; broth dilution, 18 hours at 35° C.): 128 µg/mL (≈ 114 µM)
MIC Coagulase Negative Staphylococcus (GC 4551) (Staphylococcus sp.; strain GC 4551; broth dilution, 18 hours at 35° C.): >128 µg/mL
MIC Coagulase Negative Staphylococcus (GC 6257) (Staphylococcus sp.; strain GC 6257; broth dilution, 18 hours at 35° C.): >128 µg/mL
